Columns and labels:
mPTP [1] = experiment: mPTP activity (Ca2+ retention) assay in isolated rat liver mitochondria; type: biochemical; conditions: examples tested by different contract research organisations, believed comparable
Summary of the method: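 pIC50 was taken from Fluo5N fluorescence at 10 min after a 75 μM CaCl2 bolus, scaled between DMSO (0%) and 5 μM cyclosporin A (100%). Compounds, ten half-log concentrations from 30 μM to 1 nM final, sat 10 min at RT with fresh female Sprague Dawley rat liver mitochondria energized by succinate plus rotenone.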

mPTP [2] = experiment: mPTP activity assay in isolated rat brain mitochondria; type: biochemical; conditions: for mPTP Rat brain pIC50: fluorescence at 10 min timepoint
Method: MPTP activity was measured in brain mitochondria freshly isolated from female Sprague Dawley (250 to 300 gram) rats. Anaesthetised rats were perfused in-situ with −40 ml cold Dulbecco's Phosphate Buffered Saline (DPBS), then brains dissected and transferred into 30 ml Isolation Buffer (225 mM mannitol, 75 mM sucrose, 1 mM EGTA, adjusted to pH 7.4 with 1M NaOH). The brain was minced using tweezers and a scalpel into −5 mm pieces then transferred into a 50 ml Potterton Dounce homogenization tube on ice containing 10 ml ice-cold isolation buffer (as above with addition of Complete Protease inhibitor; 1 tablet per 50 ml buffer). Homogenisation was carried out using a teflon pestle at 1800 rpm. The slurry was centrifuged at 2000 g for 10 min at 4° C., then the supernatant centrifuged at 12,000 g for 9 min. The pellet was resuspended with a dounce homogeniser in isolation buffer as above but with the addition of 0.02% digitonin, centrifuged at 12,000 g for 11 min and finally resuspended in 5 ml modified isolation buffer (as above but with EGTA reduced to 0.1 mM).
Test compounds were prepared in 384 well polypropylene assay plates as described above for the liver mitochondria assay. A stock mitochondria/Fluo5N assay solution was prepared in 5.6 ml assay buffer (120 mM mannitol, 40 mM MOPS, 5 mM KH2PO4, 60 mM KCl, 10 mM pyruvate, 2 mM malate, 2 mM MgCl2, 20 μM ADP, 1.26 μM oligomycin A, adjusted to pH 7.4) supplemented with Fluo5N pentapotassium salt (2 μM) and 1 ml mitochondria suspension, then transferred (15 μl) into the assay plate containing test compounds and incubated for 10 min at RT. Assay plates were then transferred to a FLIPR Tetra plate reader (Molecular Devices). Dye fluorescence was then measured every 3 sec for a total of 10 min.

Row | SMILES | mPTP Rat liver pIC50 (mPTP [1]) | mPTP Rat brain pIC50 (mPTP [2]) | mPTP rat brain mitochondria pIC50 (mPTP [2]; Fluo5N fluorescence at 10 min after 75 μM Ca2+)
1 | O=C(NCC1(Cc2ccc(F)cc2F)CC12CC2)c1nccc(=O)[nH]1 (single isomer, unassigned) [Example 236] | 6.11 | 7.18 | –
2 | CC(c1ccc(F)cc1F)[C@@H](CNC(=O)c1nn(C)c(=O)[nH]1)C1CC1 (single isomer, unassigned) [Example 237] | 6.56 | 7.46 | –
3 | Cn1nc(C(=O)NCC(C)(Cc2ccc(F)cc2F)C2CC2)[nH]c1=O (single isomer, unassigned) [Example 240, N-(2-cyclopropyl-3-(2,4-difluorophenyl)-2-methylpropyl)-1-methyl-5-oxo-4,5-dihydro-1H-1,2,4-triazole-3-carboxamide] | 6.91 | 7.61 | –
4 | O=C(NCC1(Cc2ccc(F)cc2F)CC(F)C1)c1nccc(=O)[nH]1 (single isomer, unassigned) [Example 248] | 6.16 | 7.05 | –
5 | CC(CNC(=O)c1nccc(=O)[nH]1)(Cc1ccc(F)cc1)C1CC1 (single isomer, unassigned) [Example 251] | 6.21 | 7.06 | –
6 | CCC(F)(CNC(=O)c1nccc(=O)[nH]1)Cc1ccc(F)cc1F (single isomer, unassigned) [Example 255, N-(2-(2,4-difluorobenzyl)-2-fluorobutyl)-6-oxo-1,6-dihydropyrimidine-2-carboxamide] | 6.45 | 7.29 | –
7 | CCC(F)(CNC(=O)c1nccc(=O)[nH]1)Cc1ccc(F)cc1F (single isomer, unassigned) [Example 256, N-(2-(2,4-difluorobenzyl)-2-fluorobutyl)-6-oxo-1,6-dihydropyrimidine-2-carboxamide] | 5.09 | 6.13 | –
8 | CC(CNC(=O)c1ncc(F)c(=O)[nH]1)(Cc1ccc(F)cc1F)C1CC1 (single isomer, unassigned) [Example 257, N-[2-cyclopropyl-3-(2,4-difluorophenyl)-2-methylpropyl]-5-fluoro-4-oxo-3H-pyrimidine-2-carboxamide] | 6.82 | 8.37 | –
9 | CC(CNC(=O)c1ncc(F)c(=O)[nH]1)(Cc1ccc(F)cc1F)C1CC1 (single isomer, unassigned) [Example 258, N-[2-cyclopropyl-3-(2,4-difluorophenyl)-2-methylpropyl]-5-fluoro-4-oxo-3H-pyrimidine-2-carboxamide] | 6.39 | 7.71 | –
10 | CC(CNC(=O)c1ncc(F)c(=O)[nH]1)(Cc1ccc(F)cc1)C1CC1 (single isomer, unassigned) [Example 261, N-[2-cyclopropyl-3-(4-fluorophenyl)-2-methylpropyl]-5-fluoro-4-oxo-3H-pyrimidine-2-carboxamide] | 7.13 | 8.29 | –
11 | CC(CNC(=O)c1ncc(F)c(=O)[nH]1)(Cc1ccc(F)cc1)C1CC1 (single isomer, unassigned) [Example 262, N-[2-cyclopropyl-3-(4-fluorophenyl)-2-methylpropyl]-5-fluoro-4-oxo-3H-pyrimidine-2-carboxamide] | 6.00 | 7.45 | –
12 | CC(CNC(=O)c1ncc(Cl)c(=O)[nH]1)(Cc1ccc(F)cc1)C1CC1 (single isomer, unassigned) [Example 263, 5-Chloro-N-[2-cyclopropyl-3-(4-fluorophenyl)-2-methylpropyl]-4-oxo-3H-pyrimidine-2-carboxamide] | 6.54 | 8.09 | –
13 | CC(CNC(=O)c1ncc(Cl)c(=O)[nH]1)(Cc1ccc(F)cc1)C1CC1 (single isomer, unassigned) [Example 264, 5-Chloro-N-[2-cyclopropyl-3-(4-fluorophenyl)-2-methylpropyl]-4-oxo-3H-pyrimidine-2-carboxamide] | 6.09 | 7.29 | –
14 | Cc1cnc(C(=O)NCC(C)(Cc2ccc(F)cc2)C2CC2)[nH]c1=O (single isomer, unassigned) [Example 267] | 6.55 | 7.32 | –
15 | Cc1cnc(C(=O)NCC(C)(Cc2ccc(F)cc2)C2CC2)[nH]c1=O (single isomer, unassigned) [Example 268] | 6.04 | 7.02 | –
16 | CC(CNC(=O)c1cc(O)no1)(Cc1ccc(F)cc1F)C1CC1 (single isomer, unassigned) [Example 269] | 6.78 | 7.73 | –
17 | CC(CNC(=O)c1cc(O)no1)(Cc1ccc(F)cc1F)C1CC1 (single isomer, unassigned) [Example 270] | 5.39 | 6.51 | –
18 | CC(CNC(=O)c1cc(O)no1)(Cc1ccc(F)cc1)C1CC1 (single isomer, unassigned) [Example 271] | 6.83 | 7.59 | –
19 | CC(CNC(=O)c1cc(O)no1)(Cc1ccc(F)cc1)C1CC1 (single isomer, unassigned) [Example 272] | 4.52 | 6.35 | –
20 | CC(CNC(=O)c1noc(=O)[nH]1)(Cc1ccc(F)cc1F)C1CC1 (single isomer, unassigned) [Example 273] | 6.50 | 7.92 | –
21 | CC(CNC(=O)c1noc(=O)[nH]1)(Cc1ccc(F)cc1F)C1CC1 (single isomer, unassigned) [Example 274] | 6.85 | 8.5 | –
22 | CC(CNC(=O)c1noc(=O)[nH]1)(Cc1ccc(F)cc1)C1CC1 (single isomer, unassigned) [Example 275, N-(2-cyclopropyl-3-(4-fluorophenyl)-2-methylpropyl)-5-oxo-4,5-dihydro-1,2,4-oxadiazole-3-carboxamide] | 6.75 | 8.57 | highest activity
23 | CC(CNC(=O)c1noc(=O)[nH]1)(Cc1ccc(F)cc1)C1CC1 (single isomer, unassigned) [Example 276, N-(2-cyclopropyl-3-(4-fluorophenyl)-2-methylpropyl)-5-oxo-4,5-dihydro-1,2,4-oxadiazole-3-carboxamide] | 5.82 | 7.27 | –
24 | O=C(NCC1(Cc2ccccc2)CCC1)c1cncc(O)c1 [Example 1, N-((1-benzylcyclobutyl)methyl)-5-hydroxynicotinamide] | 6.10 | 7.27 | –
25 | O=C(NCC1(Cc2ccccc2)CCC1)c1cncc(O)n1 [Example 2, N-((1-benzylcyclobutyl)methyl)-6-hydroxypyrazine-2-carboxamide] | 5.64 | 6.95 | –
26 | Cc1ncc(C(=O)NCC2(Cc3ccccc3)CCC2)cc1O [Example 3, N-((1-benzylcyclobutyl)methyl)-5-hydroxy-6-methylnicotinamide] | 6.02 | 6.89 | –
27 | Cc1c(O)cncc1C(=O)NCC1(Cc2ccccc2)CCC1 [Example 4, N-((1-benzylcyclobutyl)methyl)-5-hydroxy-4-methylnicotinamide] | 5.77 | 6.56 | –
28 | O=C(NCC1(Cc2ccccc2)CCC1)c1cnn[nH]1 [Example 5, N-((1-benzylcyclobutyl)methyl)-1H-1,2,3-triazole-5-carboxamide] | 5.61 | 6.72 | –
29 | O=C(NCC1(Cc2ccccc2)CCC1)c1nccc(=O)[nH]1 [Example 7, N-((1-benzylcyclobutyl)methyl)-6-oxo-1,6-dihydropyrimidine-2-carboxamide] | 5.97 | 7.42 | –
30 | O=C(NCC1(Cc2ccccc2)CCC1)c1nc(=O)[nH][nH]1 [Example 8, N-((1-benzylcyclobutyl)methyl)-5-oxo-2,5-dihydro-1H-1,2,4-triazole-3-carboxamide] | 6.32 | 7.40 | –
